Test: Inhibition of [3H]- pentazocine binding against guinea pig brain Sigma opioid receptor type 1

O=C1COc2cc(CN3CCN(c4ccc(Cl)cc4)CC3)ccc2N1 [7-[4-(4-Chloro-phenyl)-piperazin-1-ylmethyl]-4H-benzo[1,4]oxazin-3-one]
IC50: 285 nM

Source: BindingDB's records for doi:10.1021/jm990277d (Warner-Lambert, 2000)
